Results as given in patent US8999404B2, “Phaleria macrocarpa extract, extraction process and its use as cholesteryl ester transferase protein (CETP) inhibitor” (Pt. Dexa Medica, priority 2011, dated 2015).
Entries after “also recorded” stand apart in the source; their conditions may differ.

Tests used:
[1] = clinical trials, patients consuming the drug; cited from earlier work
CETP gene expression = assay: Combination effect of double unsaturated fatty acid and DLBS1449 on CETP gene expression; type: cell-based, human; conditions: HepG2, 30 μM fatty acid alone, 24 hours, FIG. 8
Method: HepG2 cells were cultured at 6-well plate until 60% of cell density was reached. Change of medium was then performed, using serum-free medium and incubated for 24 hours. Those cells were then treated with 4 different treatments which were 30 μM of arachidonic acid, 30 μM of linoleic acid, combination of arachidonic acid with 75 μg/ml of DLBS1449 and combination of linoleic acid with 75 μg/ml of DLBS1449. These treatments were performed for 24 hours. Total RNA of HepG2 cells treated with DLBS1449 were isolated using Trizol solution according to the procedure available from the solution. Total RNA were then measured using NanoDrop machine and visualized using electrophoresis method. Further, RNA with good quality will be used to synthesize cDNA through RT-PCR process using PCR Thermocycler machine in a certain condition that has been optimized.

Compound	patients' blood pressure [1]	CETP gene expression (CETP gene expression)
CCOC(=O)N1c2ccc(C(F)(F)F)cc2[C@@H](N(Cc2cc(C(F)(F)F)cc(C(F)(F)F)c2)C(=O)OC)C[C@H]1CC [torcetrapib]	increase of blood pressure; also recorded: increase in patients' blood pressure	
CCCCC/C=C\C/C=C\C/C=C\C/C=C\CCCC(=O)O [arachidonic acid]		decrease the CETP gene expression
CCCCC/C=C\C/C=C\CCCCCCCC(=O)O [linoleic acid]		greater decrease
